These results are taken from US20100216761A1, “NOVEL AZETIDINONES USEFUL AS INHIBITORS OF ELASTASE” (priority 2007, published 2010).

The target in one data set is T1, CYP2D6 (Homo sapiens, UniProt P10635).
T1 construct: host or cells: human liver microsomes or recombinant P450 microsomes
Nature of the data set: CYP-P450 reversible inhibition, 2D6. It is filed as in vitro ADME. To be noted: probe fluorogenic probe (not named); human liver microsomes or recombinant P450 microsomes; fluorescent probe. How it is done: (§1) This assay measured the reversible inhibition of the test compounds against three cytochrome P450 isozymes (CYP-P450 3A4, 2C9 and 2D6) in an automated screening formate. […] Cumene hydroperoxide, NADPH or NADPH regenerating systems can be used as electron donors for the P450 catalytic cycle. Control incubations containing no inhibitor or no fluorescent probe were performed to evaluate the 100% and 0% activities, respectively. The activity of P450 enzyme was evaluated in the presence of 0.137, 0.273, 0.547, 1.094, 2.188, 4.375, 8.750, 17.5, 35.0 and 70.0 μM concentrations of the test compounds. Inhibition curves were generated and IC50 values were calculated for each tested compound using standard techniques.

The next data set concerns the target CYP3A4 (Homo sapiens, UniProt P08684). Nature of the data set: CYP-P450 reversible inhibition, 3A4. It is filed as in vitro ADME. Further details: host or cells: human liver microsomes or recombinant P450 microsomes. The following applies: probe fluorogenic probe (not named); human liver microsomes or recombinant P450 microsomes; fluorescent probe. As to the method:
as §1

A short description of data set [1]: Liver microsome stability in 4 species: dog. The following applies: substrate 0.5 uM, microsome 0.25 mg/mL. Type of data set: in vitro ADME. How it is done:
(§2) In a separate experiment as exemplified in Table 3, the stability of the current Example 1 and the comparator Compound #290 in incubations with microsome preparations from 4 different species were also determined (Note 5).
(§3) X. S. Tong, et. al., J. of Chromatography, 2006, 833, 165.

For a further data set, the target named is T2, CYP2C9 (Homo sapiens, UniProt P11712).
T2 construct: host or cells: human liver microsomes or recombinant P450 microsomes
T2 sequence (P11712 whole entry): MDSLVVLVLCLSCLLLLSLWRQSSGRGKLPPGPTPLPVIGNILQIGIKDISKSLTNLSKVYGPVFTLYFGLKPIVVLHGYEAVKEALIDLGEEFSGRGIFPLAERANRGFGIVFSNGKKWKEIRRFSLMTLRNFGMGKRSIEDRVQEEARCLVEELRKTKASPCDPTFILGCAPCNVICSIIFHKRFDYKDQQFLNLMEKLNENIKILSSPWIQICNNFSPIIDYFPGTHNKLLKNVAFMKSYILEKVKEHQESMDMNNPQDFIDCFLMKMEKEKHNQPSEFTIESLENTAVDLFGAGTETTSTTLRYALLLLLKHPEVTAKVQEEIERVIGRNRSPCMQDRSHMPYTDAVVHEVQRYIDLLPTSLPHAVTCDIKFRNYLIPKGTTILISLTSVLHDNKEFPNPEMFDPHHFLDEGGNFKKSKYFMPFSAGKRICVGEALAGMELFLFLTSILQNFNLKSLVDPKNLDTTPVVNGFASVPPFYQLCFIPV
Description: CYP-P450 reversible inhibition, 2C9. To be noted: probe fluorogenic probe (not named); human liver microsomes or recombinant P450 microsomes; fluorescent probe. It is filed as in vitro ADME. As to the method:
as §1

The nature of data set [2]: Liver microsome stability in 4 species: rat. Type of data set: in vitro ADME. To be noted: substrate 0.5 uM, microsome 0.25 mg/mL. As to the method:
as §2, §3

Data set [3] has as its target T3, Human Leukocyte Elastase (HLE) (Homo sapiens, UniProt P08246).
T3 construct: The PMN lysates were prepared by isolating human neutrophils from whole blood; from tissue; host or cells: human neutrophils (PMN) isolated from whole blood, lysed by sonication in PBS
T3 sequence (P08246 30-267): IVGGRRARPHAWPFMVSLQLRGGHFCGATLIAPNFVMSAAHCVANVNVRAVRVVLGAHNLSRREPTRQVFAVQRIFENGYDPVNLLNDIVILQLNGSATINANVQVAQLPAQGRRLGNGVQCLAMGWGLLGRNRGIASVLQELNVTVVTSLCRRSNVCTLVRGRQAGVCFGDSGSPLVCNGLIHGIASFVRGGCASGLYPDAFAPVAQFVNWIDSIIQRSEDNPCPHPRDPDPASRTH
Description: HLE time-dependent inactivation assay, PMN cell lysate source of HLE. The following applies: 3 nM, inhibitor 26.5 nM, substrate 1 mM. It is filed as biochemical. As to the method:
As exemplified in Table 1, the Examples 1-6 of this application were determined to be potent, mechanism-based inactivators of Human Leukocyte Elastase (HLE) in two different in vitro time-dependent incubation assays. The two assays are described at the end of this Biological Data Section in Note 1. See the literature references in Note 2 for a discussion of the mechanism for this type of beta-lactam inactivation of HLE. Two sources of enzyme were used; either purified elastase or crude extracts of human polymorphonuclear leukocytes (PMN) containing elastase activity. […] For the compound of Example 1, the results were 638,000 M^−1 sec^−1 (average of n=3) and 809,000 M^−1 sec^−1 (n=4), respectively, and for Example 3, 804,000 M^−1 sec^−1 (average of n=4) and 952,000 M^−1 sec^−1 (n=5). […] Note that in this assay, head-to-head comparisons are particularly valuable.
Note 1: Enzyme Assays for the Inhibition of Human Polymorphonuclear Leukocyte Elastase Via Hydrolysis of N-Methyoxysuccinyl-alanyl-alanyl-prolylalanine-p-nitroanilide Reagent.
Prepare substrate by first dissolving in DMSO to 30 mg/ml (50 mM). Further dilute the substrate to 10 mM and add 25 μl to a final volume of 250 μl for a final concentration of 1 mM in the assay.
Prepare the enzyme in TES Buffer (0.045M TES (N-tris[hydroxymethyl]methyl-2-mino-ethanesulfonic acid), 0.45 M NaCl, pH 7.5.). Two sources of enzyme were used; either crude extracts of human polymorphonuclear leukocytes (PMN) containing elastase activity or purified elastase. The PMN lysates were prepared by isolating human neutrophils from whole blood after dextran sedimentation, ficoll density separation and red blood cell lysis. The neutrophils were lysed in PBS with sonciation and the concentration of active enzyme was determined by utilizing a standard curve of purified enzyme. For the purified elastase, the enzyme was resuspended at 10 mg/ml (˜340 μM) in 0.02M NaOAc, 50% glycerol. For both the PMN lysate and purified enzyme, a further dilution of enzyme was made to 30 nM and 25 μl was added to a final volume of 250 μl. The final concentration of enzyme in the assay was 3 nM.
The inhibitors to be tested were dissolved in DMSO at 10 mM. Directly before use, the inhibitors were further diluted into TES Buffer to 265 nM and […] was added to a final volume of 250 μl. The final concentration of inhibitor in the assay was 26.5 nM.
In a 96-well plate (flat bottom, polystyrene) 175 μl TES Buffer, 25 μl substrate, 25 μl inhibitor and 25 μl enzyme were added. After thoroughly mixing, the plate was then read in a spectrophotometer at 410 nm for 30 minutes counting every 10 seconds. Results were expressed as Kinact/Ki which is the second order rate constant in per mole per second for inactivation of the enzyme.

T1 sequence (P10635 whole entry): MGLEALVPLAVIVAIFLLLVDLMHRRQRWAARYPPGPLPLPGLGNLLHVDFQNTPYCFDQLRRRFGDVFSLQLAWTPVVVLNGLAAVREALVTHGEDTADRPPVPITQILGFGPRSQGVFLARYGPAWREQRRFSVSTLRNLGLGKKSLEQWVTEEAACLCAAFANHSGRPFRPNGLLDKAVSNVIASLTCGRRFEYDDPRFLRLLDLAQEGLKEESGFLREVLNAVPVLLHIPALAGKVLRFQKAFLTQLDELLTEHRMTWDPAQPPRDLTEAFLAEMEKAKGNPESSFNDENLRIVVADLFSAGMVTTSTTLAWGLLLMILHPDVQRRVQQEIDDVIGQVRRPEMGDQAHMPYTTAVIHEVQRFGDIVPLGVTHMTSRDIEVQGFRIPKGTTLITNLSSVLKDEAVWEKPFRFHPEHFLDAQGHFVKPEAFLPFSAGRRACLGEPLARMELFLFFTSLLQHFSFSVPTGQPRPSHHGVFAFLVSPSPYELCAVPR
CYP3A4, sequence (P08684 whole entry): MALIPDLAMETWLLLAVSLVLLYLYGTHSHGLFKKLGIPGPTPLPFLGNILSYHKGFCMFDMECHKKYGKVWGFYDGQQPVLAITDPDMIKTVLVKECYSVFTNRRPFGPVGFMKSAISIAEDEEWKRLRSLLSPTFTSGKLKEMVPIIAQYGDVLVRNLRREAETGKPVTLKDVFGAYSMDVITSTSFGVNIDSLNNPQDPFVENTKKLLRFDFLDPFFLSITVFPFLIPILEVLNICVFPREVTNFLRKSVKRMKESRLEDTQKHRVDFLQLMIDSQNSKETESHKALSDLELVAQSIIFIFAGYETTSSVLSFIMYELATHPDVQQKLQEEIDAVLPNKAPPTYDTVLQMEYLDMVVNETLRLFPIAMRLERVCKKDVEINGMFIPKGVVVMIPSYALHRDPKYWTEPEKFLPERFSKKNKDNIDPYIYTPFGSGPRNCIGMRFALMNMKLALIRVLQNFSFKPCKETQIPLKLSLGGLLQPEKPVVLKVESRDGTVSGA

In the case of `CCC[C@@H](NC(=O)N1C(=O)C(CC)(CC)[C@@H]1Oc1ccc(C(=O)N(C)CCN(C)C)cc1)c1ccc(OC)cc1` [Compound #290, reference compound], the IC50 on CYP2D6, at CYP3A4 and on CYP2C9 was over 8 µM each time. The “% Left @ 30 min” value was found to be 100% in data set [1] and 99% in data set [2]. The “% Left @ 60 min” value in data set [1] is on record as 102%; in data set [2] it was 93%.
As for `CCC[C@@H](NC(=O)N1C(=O)C(CC)(CC)[C@@H]1Oc1ccc(C(=O)N(CC)CCN(C)C)cc1)c1ccc(OC(F)(F)F)cc1` [Example 1, 2-(S)-[4-(((2-(Dimethylamino)ethyl)ethylamino)carbonyl)phenoxy]-3,3-diethyl-N-[1-(R)-(4-(trifluoromethoxy)phenyl)butyl]-4-oxo-1-azetidinecarboxamide], the IC50 on CYP2D6, at CYP3A4 and at CYP2C9 was over 8 µM each time. Besides, the “% Left @ 30 min” value in data set [1] worked out at 93%; in data set [2] it was 96%. Further, the “% Left @ 60 min” value was 86% in data set [1] and 94% in data set [2]. The kinact/KI in data set [3] is 809000 M⁻¹ s⁻¹.
For the compound `CCC[C@@H](NC(=O)N1C(=O)C(CC)(CC)[C@@H]1Oc1ccc(C(=O)N(CC)CCN(C)C)cc1)c1ccc(C(F)(F)F)cc1` [Example 3, 2-(S)-[4-(((2-(Dimethylamino)ethyl)ethylamino)carbonyl)phenoxy]-3,3-diethyl-N-[1-(R)-(4-(trifluoromethyl)phenyl)butyl]-4-oxo-1-azetidinecarboxamide], the kinact/KI in data set [3] came out at 952000 M⁻¹ s⁻¹.
